This experiment is described as follows: Inhibition of [3H]spiperone binding to Dopamine receptor D3 in bovine cortex.

Molecules are shown by their SMILES.

Compound `O=C1CC2(CCCC2)CC(=O)N1CCCCN1CCN(c2ncccn2)CC1` [BUSPAR] came in with a Ki of 660 nM.

What is called Ki is a measure of affinity in units of concentration, obtained from inhibition or displacement. Read a low Ki as tighter binding.

The values above are taken from BindingDB's records for doi:10.1021/jm950759z (Cooperation Pharmaceutique Fran?aise, 1997).
